US4309439A, “Substituted-acetic acid ester” (Sumitomo Chemical Company, Limited, priority 1975, dated 1982)
≈ marks a conversion by molar mass, not a printed value. Like-named read-outs stand apart in the source and are kept apart here.

Assays:
Format in all cases: in vivo
[1] = tested on: house-fly adults (Musca domestica); test: knock-down of house-fly adults by 0.1% oil spray in glass chamber (Experimental Example 3); conditions: 0.7 ml, (70 cm)^3 glass chamber
Protocol: Each of the following present compounds is formulated into a 0.1% oil spray using deodorized kerosene. The following compounds as a control are also likewise treated.
About 50 house-fly adults (Musca domestica) are liberated in a (70 cm)^3 glass chamber. Thereafter, 0.7 ml of each oil spray is sprayed under a pressure of 1.5 kg/cm^2 and the knock-down of the insects with the lapse of time is observed. This test is repeated several times with each oil spray to obtain the values of KT50 (time required for 50% knock-down) as shown in the following table. The present compounds are indicated by the foregoing compound number.

[2] = tested on: green rice leafhoppers (Nephotettix cincticeps); test: mortality of green rice leafhoppers on sprayed rice plants (Experimental Example 1); conditions: 30% concentrate / wettable powder diluted 300 times; 10 ml/pot; after one day; 1440 min
Protocol: An emulsifiable concentrate is prepared by blending 30% of each of the present compounds (1) to (35), 50% of xylene and 20% of Sorpol SM-200 (a registered trade mark of Toho Kagaku Co.).
The emulsifiable concentrates thus formulated were diluted 300 times with water. […] Each test solution thus prepared was individually sprayed on the rice plants in a pot which had elasped 25 days after sowing, in a proportion of 10 ml/pot. Thereafter, each pot was covered with a cylindrical wire net and 15 green rice leafhoppers (Nephotettix cincticeps) were liberated in the pot.

[3] = tested on: smaller brown planthoppers (Laodelphax striatellus); test: LC50 against smaller brown planthoppers on sprayed rice plants (Experimental Example 2); conditions: 24 h
Protocol: The following compounds as a control are also treated in the same manner as described above.
The emulsifiable concentrates thus formulated were diluted with water to a required concentration. Each test solution thus prepared was individually sprayed on the rice plants in a pot which had elapsed 25 days after sowing, in a proportion of 10 ml/pot. Thereafter, each pot was covered with a cylindrical wire net and 15 smaller brown planthoppers (Laodelphax striatellus) were liberated in the pot. After one day, the dead and alive were observed and the value of LC50 of every concentrate was obtained from the mortality.
The compounds of the present invention are expressed by the foregoing compound number.

[4] = tested on: armyworms and cutworms, cabbage worm and diamond-back moth; test: green-house test on chinese cabbages with armyworms and cutworms, cabbage worm and diamond-back moth (Example 21); conditions: 20% solution in cellosolve; active ingredient 50 g/10 are
Protocol: A green-house (3 m in height) was divided into plots having an area of 30 m^2 and chinese cabbages were grown up therein. Thereafter, armyworms and cutworms, cabbage worm and diamond-back moth were artificially made parasitic on the cabbages. The present compounds (1), (3) and (4) were each dissolved in cellosolve to make a 20% solution. Each test solution thus prepared was sprayed under pressure on the cabbages so that the amount of the active ingredient becomes 50 g/10 are.

[5] = tested on: Carmine mite female adults (Tetranychus cinnabarinus); test: damage of kidney beans by carmine mites (Example 20); conditions: emulsifiable concentrate of Preparation Example 1 diluted 500 times; 10 cc/pot; after 10 days
Protocol: To 20 parts of each of the present compounds (1), (2), (3), (4), (5), (8), (10), (11), (14), (18), (19), (21), (23), (28), (30) and (33) are added 20 parts of Sorpol SM-200 (the same as above) and 60 parts of xylene. The mixtures are each thoroughly mixed to make a solution. Thus emulsifiable concentrate of each compound is obtained.
Carmine mite female adults (Tetranychus cinnabarinus) were made parasitic on the leaves of potted kidney beans (2-leaf stage) which had elapsed 9 days after sowing, in a proportion of 10-15/leaf. […] Among the emulsifiable concentrates formulated according to Preparation Example 1, those containing the present compounds (1), (4), (14), (19), (23), (30) and (33) were each diluted 500 times with water. At this time, each test solution thus prepared was sprayed in a proportion of 10 cc/pot by means of a turn table. After 10 days, damage of the kidney beans by the insects was checked.

[6] = tested on: green rice leafhopper adults (Nephotettix cincticeps); test: kill of green rice leafhopper adults by dusts on rice plants (Example 18); conditions: dust of Preparation Example 6 (with piperonyl-butoxide), 3 kg/10 are; after one day; 1440 min
Protocol: One part of each of the present compounds (2), (4), (5), (7), (12), (17), (20), (21), (22), (25), (26), and (35) and 5 parts of piperonyl-butoxide are dissolved in 20 parts of acetone, and then 94 parts of 300 mesh talc are added thereto. After thoroughly mixing in a mortar while stirring, acetone is removed by evaporation. Thus dust of each compound is obtained.
Among the dusts formulated according to Preparation Example 6, those containing the present compounds (2), (7), (12), and (25) were each dusted, using Belljar duster, on the rice plants in a 1/50,000 Wagner pot which had elapsed 45 days after sowing, in a proportion of 3 kg/10 are. After covering the pot with wire net, about 30 green rice leafhopper adults (Nephotettix cincticeps) were liberated therein. After one day, more than 70% of the test insects were killed.

[7] = rice plants sprayed 10 ml/pot, after one day, read-out: LC50

Row | Structure (SMILES) | KT50 (time required for 50% knock-down) [1] [s] | LC50 [3, 7] [µg/mL] | further results
1 | C=CCC1=C(C)C(OC(=O)C2C(C=C(C)C)C2(C)C)CC1=O (stereo not drawn) [Allethrin, reference compound] | 504 | – | –
2 | CNC(=O)Oc1cccc2ccccc12 [Carbaryl, 1-naphthyl-N-methylcarbamate] | – | – | mortality [2]: more than 90%
3 | C#CCC=C(C)C(C#C)OC(=O)C(c1ccc(Cl)cc1)C(C)C (stereo not drawn) [Compound 1, 4-Methylocta-4-ene-1,7-diyne-3-yl α-isopropyl-4-chlorophenylacetate] | 128 | 23 (≈ 69.9 µM) | spread of damage by the insect [4]: no spread of damage by the insect was observed; increase in damage of the kidney beans [5]: an increase in the damage was not observed
4 | C#CCC=C(C)C(C#C)OC(=O)C(c1ccc(Cl)c(Cl)c1)C(C)C (stereo not drawn) [Compound 2, 4-Methylocta-4-ene-1,7-diyne-3-yl α-isopropyl-3,4-dichlorophenyl-acetate] | – | 31 (≈ 85.3 µM) | test insects killed [6]: more than 70%
5 | C#CCC=C(C)C(C#C)OC(=O)C(c1ccc(OC)cc1)C(C)C (stereo not drawn) [Compound 3, 4-Methylocta-4-ene-1,7-diyne-3-yl α-isopropyl-4-methoxyphenylacetate] | 139 | 35 (≈ 108 µM) | spread of damage by the insect [4]: no spread of damage by the insect was observed
6 | C#CCC=C(C)C(C#C)OC(=O)C(c1ccc2c(c1)OCO2)C(C)C (stereo not drawn) [Compound 4, 4-Methylocta-4-ene-1,7-diyne-3-yl α-isopropyl-3,4-methylenedioxyphenyl-acetate] | 136 | 28 (≈ 82.7 µM) | spread of damage by the insect [4]: no spread of damage by the insect was observed; increase in damage of the kidney beans [5]: an increase in the damage was not observed
7 | C#CCC=C(C)C(C#C)OC(=O)C(c1ccc2c(c1)CCCC2)C(C)C (stereo not drawn) [Compound 5, 4-Methylocta-4-ene-1,7-diyne-3-yl α-isopropyl-3,4-tetramethylenephenyl-acetate] | 140 | – | –
8 | C#CCC=C(C)C(C#C)OC(=O)C(c1coc(C)c1)C(C)C (stereo not drawn) [Compound 6, 4-Methylocta-4-ene-1,7-diyne-3-yl 2-(5-methyl-3-furyl)-isovalerate] | – | 32 (≈ 107 µM) | –
9 | C#CCC=C(C)C(C#C)OC(=O)C(c1csc(C)c1)C(C)C (stereo not drawn) [Compound 7, 4-Methylocta-4-ene-1,7-diyne-3-yl 2-(5-methyl-3-thienyl)-isovalerate] | 175 | – | test insects killed [6]: more than 70%
10 | C#CCC=C(CC)C(C#C)OC(=O)C(c1ccc(Cl)cc1)C(C)C (stereo not drawn) [Compound 10, 4-Ethylocta-4-ene-1,7-diyne-3-yl α-isopropyl-4-chlorophenylacetate] | – | 34 (≈ 99.2 µM) | –
11 | C#CCCC=C(C)C(C#C)OC(=O)C(c1ccc(Br)cc1)C(C)C (stereo not drawn) [Compound 11, 4-Methylnona-4-ene-1,8-diyne-3-yl α-isopropyl-4-bromophenylacetate] | 147 | – | –
12 | C#CC(OC(=O)C(c1ccc(F)cc1)C(C)C)C(C)=CCc1ccccc1 (stereo not drawn) [Compound 12, 6-Phenyl-4-methylhexa-4-ene-1-yne-3-yl α-isopropyl-4-fluoro-phenylacetate] | – | – | test insects killed [6]: more than 70%
13 | C#CC(OC(=O)C(c1ccc(OC)cc1)C(C)C)C(C)=CCCC=C (stereo not drawn) [Compound 14, 4-Methylnona-4,8-diene-1-yne-3-yl α-isopropyl-4-methoxyphenylacetate] | 174 | 46 (≈ 135 µM) | increase in damage of the kidney beans [5]: an increase in the damage was not observed
14 | C#CCC=C(C)C(C#C)OC(=O)C(c1ccc(OC)c(OC)c1)C(C)(C)C (stereo not drawn) [Compound 19, 4-Methylocta-4-ene-1,7-diyne-3-yl α-t-butyl-3,4-dimethoxyphenyl-acetate] | – | 43 (≈ 117 µM) | increase in damage of the kidney beans [5]: an increase in the damage was not observed
15 | C#CCCC=C(C)C(C#C)OC(=O)C(CC)c1ccc(C#N)cc1 (stereo not drawn) [Compound 23, 4-Methylnona-4-ene-1,8-diyne-3-yl α-ethyl-4-cyanophenylacetate] | 140 | 50 (≈ 157 µM) | increase in damage of the kidney beans [5]: an increase in the damage was not observed
16 | C#CCC(C(=O)OC(C#C)C(=CCCC=C)CC)c1ccc(CC)cc1 (stereo not drawn) [Compound 25, 4-Ethylnona-4,8-diene-1-yne-3-yl α-propargyl-4-ethylphenylacetate] | – | – | test insects killed [6]: more than 70%
17 | C#CC(C=Cc1ccccc1)OC(=O)C(c1ccc(SC)cc1)C(C)C (stereo not drawn) [Compound 27, 5-Phenylpenta-4-ene-1-yne-3-yl α-isopropyl-4-methylthiophenyl-acetate] | – | 66 (≈ 181 µM) | –
18 | C#CCC=C(C)C(C#C)OC(=O)C(c1cc2c(s1)CCCC2)C(C)C (stereo not drawn) [Compound 29] | – | 48 (≈ 135 µM) | –
19 | C#CCC=C(C)C(C#C)OC(=O)C(c1cc2c(s1)CCC2)C(C)C (stereo not drawn) [Compound 30, 4-Methylocta-4-ene-1,7-diyne-3-yl 2-(4,5-tri-methylene-thienyl)-isovalerate] | 158 | – | increase in damage of the kidney beans [5]: an increase in the damage was not observed
20 | C#CCC=C(C)C(C#C)OC(=O)C(c1ccc2c(c1)CCC2)C(C)C (stereo not drawn) [Compound 33, 4-Methylocta-4-ene-1,7-diyne-3-yl 2-(5-indanyl)-isovalerate] | – | – | increase in damage of the kidney beans [5]: an increase in the damage was not observed
21 | C#CCC=C(C)C(C#C)OC(=O)C(c1cc2ccccc2o1)C(C)C (stereo not drawn) [Compound 34, 4-Methylocta-4-ene-1,7-diyne-3-yl 2-(2-benzo-furyl)-isovalerate] | 170 | – | –
22 | CNC(=O)Oc1ccccc1Cl [Hopcide, reference compound] | – | – | LC50 [3]: 75 µg/mL (≈ 404 µM)
23 | CC(C)=CC1C(C(=O)OCc2coc(Cc3ccccc3)c2)C1(C)C (stereo not drawn) [Resmethrin, reference compound] | > 600 | – | –
24 | COc1ccc(C(C(=O)OC(C#N)c2cccc(Oc3ccccc3)c2)C(C)C)cc1 (stereo not drawn) [drawing 45, reference compound] | – | 73 (≈ 176 µM) | –
25 | COc1ccc(C(C(=O)OC(C#N)c2cccc(Oc3ccccc3)c2)C(C)C)cc1 (stereo not drawn) [drawing 50, reference compound] | 490 | – | –
26 | COc1ccc(C(C(=O)OCc2cccc(Oc3ccccc3)c2)C(C)C)cc1 (stereo not drawn) [reference compound] | – | 87 (≈ 223 µM) | –
27 | C#CCc1ccc(COC(=O)C(c2ccc(Cl)cc2)C(C)C)o1 (stereo not drawn) [reference compound] | – | 68 (≈ 206 µM) | –
28 | CC(C)C(C(=O)OCc1coc(Cc2ccccc2)c1)c1ccc(Cl)cc1 (stereo not drawn) [reference compound] | 510 | – | –
29 | C#CCc1ccc(C(C#C)OC(=O)C(c2ccc(OC)cc2)C(C)C)o1 (stereo not drawn) [reference compound] | 183 | – | –
